Assay results taken from patent US20210255193A1, “LYSINE REACTIVE PROBES AND USES THEREOF” (The Scripps Research Institute, priority 2017, published 2021).

Columns and labels:
Assay in all cases: competitive isoTOP-ABPP
Format in all cases: binding
[1] = biological target: T1, ATP6V1F V-type proton ATPase subunit F (Homo sapiens, UniProt Q16864); conditions: for isoTOP-ABPP ratio, lysine Q16864_K6: 50 uM_231_sol_in vitro; for isoTOP-ABPP ratio (R) at liganded lysine Q16864_K6: sol, 231
T1 construct: isoTOP-ABPP experiments performed in cell lysates (in vitro); endogenous in cells; host or cells: soluble proteome of human cancer cell lines (MDA-MB-231; Ramos and Jurkat also prepared)
T1 sequence (Q16864 whole entry): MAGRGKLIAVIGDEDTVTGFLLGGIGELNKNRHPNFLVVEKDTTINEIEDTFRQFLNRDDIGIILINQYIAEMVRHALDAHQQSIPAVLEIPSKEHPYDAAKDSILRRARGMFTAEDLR
Procedure, shortened: (§1)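 Lysine engagement is reported as R, the MS1 peak-area ratio of heavy-tagged DMSO to light-tagged compound samples. Final fragment concentrations were 50 μM for activated esters and 100 μM for guanidinylating agents; STP-alkyne probe 0.1 mM, 1 h.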

TTR Transthyretin = biological target: T2, TTR Transthyretin (Homo sapiens, UniProt P02766); conditions: for isoTOP-ABPP ratio, lysine P02766_K35: 50 uM_231_sol_in vitro; for isoTOP-ABPP ratio (R) at liganded lysine P02766_K35: sol, 231
T2 construct: isoTOP-ABPP experiments performed in cell lysates (in vitro); endogenous in cells; host or cells: MDA-MB-231 soluble lysate
Procedure, shortened: as §1

[2] = biological target: T3, LRRC20 Leucine-rich repeat-containing protein 20 (Homo sapiens, UniProt Q8TCA0); conditions: for isoTOP-ABPP ratio, lysine Q8TCA0_K43: 50 uM_231_sol_in vitro; for isoTOP-ABPP ratio (R) at liganded lysine Q8TCA0_K43: sol, 231
T3 construct: isoTOP-ABPP experiments performed in cell lysates (in vitro); endogenous in cells; host or cells: soluble proteome of human cancer cell lines (MDA-MB-231; Ramos and Jurkat also prepared)
T3 sequence (Q8TCA0 1-184): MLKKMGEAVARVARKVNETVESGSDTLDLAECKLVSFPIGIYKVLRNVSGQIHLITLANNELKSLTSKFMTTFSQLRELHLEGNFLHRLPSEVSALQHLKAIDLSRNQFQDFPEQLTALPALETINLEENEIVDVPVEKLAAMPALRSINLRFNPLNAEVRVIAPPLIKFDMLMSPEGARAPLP
Procedure, shortened: as §1

[3] = biological target: T4, EEF1G Elongation factor 1-gamma (Homo sapiens, UniProt P26641); conditions: for isoTOP-ABPP ratio, lysine P26641_K227: 50 uM_231_sol_in vitro
T4 construct: isoTOP-ABPP experiments performed in cell lysates (in vitro); endogenous in cells; host or cells: soluble proteome of human cancer cell lines (MDA-MB-231; Ramos and Jurkat also prepared)
T4 sequence (P26641 whole entry): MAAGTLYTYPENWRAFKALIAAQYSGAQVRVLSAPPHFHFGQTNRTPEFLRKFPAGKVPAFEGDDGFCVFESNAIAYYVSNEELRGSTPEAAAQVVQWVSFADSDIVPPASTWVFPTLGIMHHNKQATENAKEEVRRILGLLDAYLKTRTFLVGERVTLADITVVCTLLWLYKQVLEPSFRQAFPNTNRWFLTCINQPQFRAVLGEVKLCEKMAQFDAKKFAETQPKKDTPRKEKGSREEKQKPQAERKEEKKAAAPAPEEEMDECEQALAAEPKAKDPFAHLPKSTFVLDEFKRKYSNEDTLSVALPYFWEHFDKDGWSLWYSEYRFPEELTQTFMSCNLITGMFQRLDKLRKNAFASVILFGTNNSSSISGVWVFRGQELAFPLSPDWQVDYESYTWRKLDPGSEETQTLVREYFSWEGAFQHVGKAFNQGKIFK
Procedure, shortened: as §1

[4] = biological target: T5, CDK2 Cyclin-dependent kinase 2 (Homo sapiens, UniProt P24941); conditions: for isoTOP-ABPP ratio, lysine P24941_K33: 50 uM_231_sol_in vitro; for isoTOP-ABPP ratio (R) at liganded lysine P24941_K33: sol, 231
T5 construct: isoTOP-ABPP experiments performed in cell lysates (in vitro); endogenous in cells; host or cells: soluble proteome of human cancer cell lines (MDA-MB-231; Ramos and Jurkat also prepared)
Procedure, shortened: as §1

[5] = biological target: T6, NUDT22 Nucleoside diphosphate-linked moiety X motif 22 (Homo sapiens, UniProt Q9BRQ3); conditions: for isoTOP-ABPP ratio (R) at liganded lysine Q9BRQ3_K60: sol, 231
T6 construct: isoTOP-ABPP experiments performed in cell lysates (in vitro); endogenous in cells; host or cells: soluble proteome of human cancer cell lines (MDA-MB-231; Ramos and Jurkat also prepared)
T6 sequence (Q9BRQ3 1-303): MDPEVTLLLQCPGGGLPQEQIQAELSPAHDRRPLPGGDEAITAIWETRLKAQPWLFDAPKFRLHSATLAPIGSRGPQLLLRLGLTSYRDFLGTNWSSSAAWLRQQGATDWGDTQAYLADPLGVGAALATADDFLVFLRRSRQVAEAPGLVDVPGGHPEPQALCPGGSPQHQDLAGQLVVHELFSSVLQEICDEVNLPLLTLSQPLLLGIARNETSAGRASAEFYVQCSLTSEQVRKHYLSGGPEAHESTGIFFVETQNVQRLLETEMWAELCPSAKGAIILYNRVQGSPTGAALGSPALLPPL
Procedure, shortened: as §1

DTYMK Thymidylate kinase = biological target: T7, DTYMK Thymidylate kinase (Homo sapiens, UniProt P23919); conditions: 50 uM, in vitro; for isoTOP-ABPP ratio (R) at liganded lysine P23919_K118: sol, 231
T7 construct: isoTOP-ABPP experiments performed in cell lysates (in vitro); endogenous in cells; host or cells: soluble proteome of human cancer cell lines (MDA-MB-231; Ramos and Jurkat also prepared)
T7 sequence (P23919 1-212): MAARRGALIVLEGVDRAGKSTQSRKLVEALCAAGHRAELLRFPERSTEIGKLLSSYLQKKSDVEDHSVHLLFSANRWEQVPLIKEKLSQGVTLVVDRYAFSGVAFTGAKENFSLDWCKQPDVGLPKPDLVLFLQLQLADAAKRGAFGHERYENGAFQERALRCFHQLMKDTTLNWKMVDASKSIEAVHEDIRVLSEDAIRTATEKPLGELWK
Procedure, shortened: as §1

[6] = biological target: T8, NLN Neurolysin, mitochondrial (Homo sapiens, UniProt Q9BYT8); conditions: for isoTOP-ABPP ratio (R) at liganded lysine Q9BYT8_K253: sol, 231
T8 construct: isoTOP-ABPP experiments performed in cell lysates (in vitro); endogenous in cells; host or cells: soluble proteome of human cancer cell lines (MDA-MB-231; Ramos and Jurkat also prepared)
T8 sequence (Q9BYT8 38-704): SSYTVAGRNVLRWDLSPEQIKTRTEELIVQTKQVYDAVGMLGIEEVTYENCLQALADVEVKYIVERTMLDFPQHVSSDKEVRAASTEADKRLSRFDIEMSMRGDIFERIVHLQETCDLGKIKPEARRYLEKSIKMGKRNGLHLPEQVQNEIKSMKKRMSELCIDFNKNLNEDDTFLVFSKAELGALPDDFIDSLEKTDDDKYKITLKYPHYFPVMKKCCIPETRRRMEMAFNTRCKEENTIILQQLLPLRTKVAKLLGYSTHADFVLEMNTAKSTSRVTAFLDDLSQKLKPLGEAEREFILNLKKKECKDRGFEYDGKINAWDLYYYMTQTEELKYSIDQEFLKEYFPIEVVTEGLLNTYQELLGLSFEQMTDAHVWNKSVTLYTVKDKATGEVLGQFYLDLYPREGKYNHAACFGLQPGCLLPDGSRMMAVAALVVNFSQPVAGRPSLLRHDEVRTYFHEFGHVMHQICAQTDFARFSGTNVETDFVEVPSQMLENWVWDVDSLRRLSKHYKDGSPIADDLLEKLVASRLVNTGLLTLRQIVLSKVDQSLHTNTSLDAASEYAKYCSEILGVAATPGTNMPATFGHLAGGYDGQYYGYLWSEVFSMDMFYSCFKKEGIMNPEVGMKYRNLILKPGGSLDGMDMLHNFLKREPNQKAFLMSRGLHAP
Procedure, shortened: as §1

[7] = biological target: T9, TSTA3 GDP-L-fucose synthase (Homo sapiens, UniProt Q13630); conditions: for isoTOP-ABPP reactivity ratio at lysine Q13630_K108: 231 sol
T9 construct: isoTOP-ABPP experiments performed in cell lysates (in vitro); endogenous in cells; host or cells: soluble proteome of human cancer cell lines (MDA-MB-231, Ramos, Jurkat)
T9 sequence (Q13630 whole entry): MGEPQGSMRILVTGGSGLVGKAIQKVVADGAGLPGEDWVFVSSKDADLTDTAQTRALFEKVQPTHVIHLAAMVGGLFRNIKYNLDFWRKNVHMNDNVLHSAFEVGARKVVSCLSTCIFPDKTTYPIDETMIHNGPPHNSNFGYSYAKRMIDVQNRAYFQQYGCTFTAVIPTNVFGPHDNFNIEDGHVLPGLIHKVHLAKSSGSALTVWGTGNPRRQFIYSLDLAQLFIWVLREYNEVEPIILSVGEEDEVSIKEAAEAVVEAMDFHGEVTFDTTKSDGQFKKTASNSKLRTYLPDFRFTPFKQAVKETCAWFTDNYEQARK
Procedure, shortened: as §1

N#Cc1ccc(C(=O)Oc2ccc([N+](=O)[O-])cc2[N+](=O)[O-])cc1 [fragment 44, 2,4-Dinitrophenyl 4-cyanobenzoate]
isoTOP-ABPP ratio, lysine Q16864_K6 [1]: 1.2
isoTOP-ABPP ratio, lysine P02766_K35 (TTR Transthyretin): 20.0
isoTOP-ABPP ratio, lysine Q8TCA0_K43 [2]: 1.1
isoTOP-ABPP ratio, lysine P26641_K227 [3]: 0.8
isoTOP-ABPP ratio, lysine P24941_K33 [4]: 1.1

O=C(Oc1ccc([N+](=O)[O-])cc1[N+](=O)[O-])c1ccc(-c2ccccc2)cc1 [fragment 37, 2,4-Dinitrophenyl [1,1′-biphenyl]-4-carboxylate]
isoTOP-ABPP ratio (R) at liganded lysine Q16864_K6 ([1]; 50 uM, in vitro): 1.0
isoTOP-ABPP ratio (R) at liganded lysine Q9BRQ3_K60 ([5]; 50 uM, in vitro): 1.0
isoTOP-ABPP ratio (R) at liganded lysine P23919_K118 (DTYMK Thymidylate kinase): 0.9
isoTOP-ABPP ratio (R) at liganded lysine Q9BYT8_K253 ([6]; 50 uM, in vitro): 0.9
isoTOP-ABPP ratio (R) at liganded lysine Q13630_K108 ([7]; 50 uM, in vitro, sol, 231): 2.9
isoTOP-ABPP ratio (R) at liganded lysine P24941_K33 ([4]; 50 uM, in vitro): 0.9

O=C(CCc1ccc2c(c1)OCO2)Oc1ccc([N+](=O)[O-])cc1[N+](=O)[O-] [fragment 45, 2,4-Dinitrophenyl 3-(benzo[d][1,3]dioxol-5-yl)propanoate]
isoTOP-ABPP ratio, lysine Q16864_K6 [1]: 1.0
isoTOP-ABPP ratio, lysine Q9BRQ3_K60 ([5]; 50 uM_231_sol_in vitro): 1.7
isoTOP-ABPP ratio, lysine P02766_K35 (TTR Transthyretin): 2.5
isoTOP-ABPP ratio, lysine Q9BYT8_K253 ([6]; 50 uM_231_sol_in vitro): 1.3
isoTOP-ABPP ratio, lysine Q8TCA0_K43 [2]: 0.8
isoTOP-ABPP ratio, lysine P26641_K227 [3]: 0.6
isoTOP-ABPP ratio, lysine Q13630_K108 ([7]; 50 uM_231_sol_in vitro): 20.0
isoTOP-ABPP ratio, lysine P24941_K33 [4]: 4.6

O=C(Oc1c(F)c(F)c(F)c(F)c1F)C(c1ccccc1)c1ccccc1 [fragment 20, Pentafluorophenyl 2,2-diphenylacetate]
R value (DMSO/fragment) for probe 1 labeling ([1]; Q16864_K6, 50 uM, 231 sol, in vitro): 1.1
R value (DMSO/fragment) for probe 1 labeling ([5]; Q9BRQ3_K60, 50 uM, 231 sol, in vitro): 0.8
R value (DMSO/fragment) for probe 1 labeling (TTR Transthyretin; P02766_K35, 50 uM, 231 sol, in vitro): 1.4
R value (DMSO/fragment) for probe 1 labeling (DTYMK Thymidylate kinase; P23919_K118, 231 sol): 0.9
R value (DMSO/fragment) for probe 1 labeling ([6]; Q9BYT8_K253, 50 uM, 231 sol, in vitro): 0.9
R value (DMSO/fragment) for probe 1 labeling ([2]; Q8TCA0_K43, 50 uM, 231 sol, in vitro): 0.7
R value (DMSO/fragment) for probe 1 labeling ([3]; P26641_K227, 50 uM, 231 sol, in vitro): 0.9
R value (DMSO/fragment) for probe 1 labeling ([4]; P24941_K33, 50 uM, 231 sol, in vitro): 0.9

O=C(Oc1ccc([N+](=O)[O-])cc1[N+](=O)[O-])c1ccc2ccccc2n1 [fragment 35, 2,4-Dinitrophenyl quinoline-2-carboxylate]
isoTOP-ABPP ratio (R) at liganded lysine Q9BRQ3_K60 ([5]; 50 uM, in vitro): 1.1
isoTOP-ABPP ratio (R) at liganded lysine P02766_K35 (TTR Transthyretin; 50 uM, in vitro): 15.6
isoTOP-ABPP ratio (R) at liganded lysine P23919_K118 (DTYMK Thymidylate kinase): 0.9
isoTOP-ABPP ratio (R) at liganded lysine Q9BYT8_K253 ([6]; 50 uM, in vitro): 1.1
isoTOP-ABPP ratio (R) at liganded lysine Q8TCA0_K43 ([2]; 50 uM, in vitro): 1.0
isoTOP-ABPP ratio (R) at liganded lysine P24941_K33 ([4]; 50 uM, in vitro): 1.6

CCn1cc(C(=O)Oc2c(F)c(F)c(F)c(F)c2F)c(=O)c2ccc(C)nc21 [fragment 28, Pentafluorophenyl 1-ethyl-7-methyl-4-oxo-1,4-dihydro-1,8-naphthyridine-3-carboxylate]
isoTOP-ABPP reactivity ratio at lysine Q9BRQ3_K60 ([5]; 50 uM, 231 sol, in vitro): 1.0
isoTOP-ABPP reactivity ratio at lysine P23919_K118 (DTYMK Thymidylate kinase; 231 sol): 0.9
isoTOP-ABPP reactivity ratio at lysine P26641_K227 ([3]; 50 uM, 231 sol, in vitro): 15.0
isoTOP-ABPP reactivity ratio at lysine Q13630_K108 ([7]; 50 uM, in vitro): 1.0

O=C(Oc1c(F)c(F)c(F)c(F)c1F)C1CCN(C(=O)OCc2ccccc2)CC1 [fragment 24, 1-Benzyl 4-(pentafluorophenyl) piperidine-1,4-dicarboxylate]
isoTOP-ABPP reactivity ratio at lysine P23919_K118 (DTYMK Thymidylate kinase; 231 sol): 1.1
isoTOP-ABPP reactivity ratio at lysine P26641_K227 ([3]; 50 uM, 231 sol, in vitro): 0.9
isoTOP-ABPP reactivity ratio at lysine Q13630_K108 ([7]; 50 uM, in vitro): 0.6

O=C(Oc1c(F)c(F)c(F)c(F)c1F)c1ccc2ccccc2n1 [fragment 25, Pentafluorophenyl quinoline-2-carboxylate]
isoTOP-ABPP reactivity ratio at lysine Q9BRQ3_K60 ([5]; 50 uM, 231 sol, in vitro): 0.8
isoTOP-ABPP reactivity ratio at lysine P23919_K118 (DTYMK Thymidylate kinase; 231 sol): 1.1
isoTOP-ABPP reactivity ratio at lysine Q9BYT8_K253 ([6]; 50 uM, 231 sol, in vitro): 0.9
isoTOP-ABPP reactivity ratio at lysine P26641_K227 ([3]; 50 uM, 231 sol, in vitro): 1.1

O=C(Oc1ccc([N+](=O)[O-])cc1[N+](=O)[O-])c1ccc(Oc2ccccc2)cc1 [fragment 39, 2,4-Dinitrophenyl 4-phenoxybenzoate]
isoTOP-ABPP ratio (R) at liganded lysine Q16864_K6 ([1]; 50 uM, in vitro): 0.9
isoTOP-ABPP ratio (R) at liganded lysine Q9BRQ3_K60 ([5]; 50 uM, in vitro): 0.9
isoTOP-ABPP ratio (R) at liganded lysine P02766_K35 (TTR Transthyretin; 50 uM, in vitro): 2.2
isoTOP-ABPP ratio (R) at liganded lysine P23919_K118 (DTYMK Thymidylate kinase): 0.8
isoTOP-ABPP ratio (R) at liganded lysine Q9BYT8_K253 ([6]; 50 uM, in vitro): 1.1
isoTOP-ABPP ratio (R) at liganded lysine Q8TCA0_K43 ([2]; 50 uM, in vitro): 0.9
isoTOP-ABPP ratio (R) at liganded lysine P24941_K33 ([4]; 50 uM, in vitro): 1.0
